In publication PMC5407626 (PLoS ONE, 2017):
Where “and” joins values, the source holds several entries; their conditions need not be identical. Equal values may be shown once.

Assays:
[1] = target: T1, SCD1 (Homo sapiens, UniProt O00767); test: SCD1 activity in ARPE-19 cells (conversion of methyl-D3 palmitic acid to methyl-D3 palmitoleic acid, LC/MS); assay type: cell-based; settings: for Palmitate (AUC) / Palmitoleic Acid (AUC) / Ratio (16:0 / 16:1): 10 μM 16 h, then 50 μM D3-palmitic acid 5 h, single samples; for Mean Ratio (16:0 / 16:1) / effect on SCD1 activity: 10 μM; for Mean Ratio (16:0 / 16:1): mean of 3 samples, DMSO 8.884; for effect on SCD1 activity: ARPE-19 cells
T1 construct: endogenous in cells; host or cells: ARPE-19
T1 sequence (O00767 1-359): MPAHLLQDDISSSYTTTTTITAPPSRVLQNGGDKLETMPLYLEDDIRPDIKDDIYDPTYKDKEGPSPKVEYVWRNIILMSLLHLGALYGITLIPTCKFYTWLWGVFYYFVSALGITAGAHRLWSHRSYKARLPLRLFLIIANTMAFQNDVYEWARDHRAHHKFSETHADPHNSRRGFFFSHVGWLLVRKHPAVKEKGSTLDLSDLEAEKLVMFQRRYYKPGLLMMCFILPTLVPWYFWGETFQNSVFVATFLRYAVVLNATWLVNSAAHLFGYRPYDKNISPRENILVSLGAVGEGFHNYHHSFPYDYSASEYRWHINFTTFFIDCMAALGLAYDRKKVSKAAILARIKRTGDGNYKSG
Description: (§1) Compounds were dissolved in dimethyl sulfoxide (DMSO) and then added to the cell culture medium. Cells designated as control received an equal amount of dimethyl sulfoxide. After 16 h, cells were incubated with 50 μM palmitic acid triply deuterated (D3) on the methyl group (Cambridge Isotope Laboratories, Tewksbury, MA) for an additional 5 h before harvesting.
Cells were detached from culture plates using 0.05% Trypsin-EDTA, washed with PBS, and pelleted. Cell pellets were resuspended in 450 μl Cell Lysis Buffer (Cell Signaling Technology, Danvers, MA) then sonicated on ice until uniformly dispersed. An aliquot (50 μl) of the dispersed cell suspension was used for protein quantitation, and the remaining 400 μl was used for lipid extraction as follows. Samples were spiked with a small volume of pentadecanoic acid (in CHCl3) as internal standard, and were then subjected to saponification (by addition of an equal volume of 0.6 M methanolic KOH and incubating at 72°C for 15 minutes). Following saponification, samples were acidified by addition of 100 μl formic acid. The acidified mixture was extracted twice with 1 ml chloroform to recover free fatty acids. The chloroform extracts were pooled, solvent was evaporated under argon at 37°C, and the residue was resolubilized in 100 μl chloroform/methanol (1:4) for analysis by liquid chromatography mass spectrometry (LC/MS) using a modification of the procedures of Dillon et al.. The LC-MS system consisted of a 1200 Series Capillary LC (Agilent, Santa Clara, CA) coupled to a Micromass Q-Tof micro mass spectrometer (Waters Corp., Milford, MA) equipped with an electrospray ionization source. Separation of fatty acids was achieved by isocratic elution on a PLRP-S polymeric reversed-phase column (100 Å, 3 μm, 2.1 x 150 mm; Agilent) heated to 65°C. A mobile phase consisting of 25% acetonitrile:chloroform (1:1), 40% methanol, 25% water, 10% 10 mM ammonium acetate was run at a flow rate of 0.1 ml/min. The mass spectral analysis of the fatty acids was performed in the negative ion mode using the following instrument settings: capillary voltage, 1600; sample cone voltage, 40; cone gas flow, 40 L/hr; desolvation gas flow, 400 L/hr; source temperature, 80°C; desolvation temperature, 100°C. Data was then analyzed using MassLynx software v 4.1 (Waters) by extracting the ion chromatograms of the labeled palmitic and palmitoleic acid peaks and measuring peak area.
(§2) Cell lysates were analyzed by Western blotting using mouse monoclonal antibody against SCD1 (upper panel) in comparison with immunoreactivity to α-tubulin which was employed as a loading control (lower panel) and densitometry for each lane was performed and analyzed by ImageJ to provide the SCD1/α-tubulin ratio for each lane. […] Free fatty acids present in lipid extracts were analyzed by LC/MS and SCD1 activity, measured by the conversion of methyl-D3 palmitic acid to methyl-D3 palmitoleic acid, was determined. […] Lipids were extracted from two 100 mm Petri dishes and combined for mass spectrometry analysis. Data plotted as means ± standard deviation; n = 3. […] They are given here as printed results in cells, but it is uncertain whether they fall under the exclusion for gels and blots. / Panel A: the Control lane (1.00) is left out because it is not a substance.

[2] = test system: SCD1; test: SCD1 protein expression in ARPE-19 cells (Western blot densitometry); assay type: cell-based, human; settings: 10 μM
Description: as §1
Samples were resuspended in 20 μl 4X reducing NuPAGE LDS sample buffer (Invitrogen). For western blot analysis, equal amounts of total protein (50 μg) from cell extracts were subjected to SDS-polyacrylamide gel electrophoresis using 4–12% NUPAGE Bis-Tris gels and then transferred to a nitrocellulose membrane using iBlot® Dry Blotting System (Invitrogen, Carlsbad, CA). After blocking in 5% non-fat milk in Tris-buffered saline (TBS) containing 0.01% Tween 20 for 1 h, the membranes were incubated overnight at 4°C with mouse monoclonal anti-SCD1 antibody (1:200; Kamiya Biomedical Company). Peroxidase-conjugated goat anti-mouse IgG antibody was used as secondary antibody. Immunocomplexes were visualized by a chemiluminescence method using the ECL Prime western blotting Detection Kit (GE Healthcare Life Sciences). The blots were then stripped and reprobed with mouse monoclonal anti-α-tubulin antibody.
as §2

| Structure (SMILES) | Palmitate (AUC) [1] | Palmitoleic Acid (AUC) [1] | Ratio (16:0 / 16:1) [1] | Mean Ratio (16:0 / 16:1) [1] | effect on SCD1 activity [1] | effect on SCD1 expression [2] | Palmitate (AUC) ([1]; listed as 4HPR) | Palmitoleic Acid (AUC) ([1]; listed as 4HPR) |
| --- | --- | --- | --- | --- | --- | --- | --- | --- |
| O=C(O)c1ccccc1NC(=O)N1CCC(c2ccccc2C(F)(F)F)CC1 [A1120] | 625.27 and 963.80 and 854.94 | 74.04 and 107.80 and 111.92 | 8.445 and 8.941 and 7.639 | 8.342 | no inhibitory effect on SCD1 activity at all | do not affect |  |  |
| CC1=C(/C=C/C(C)=C/C=C/C(C)=C/C(=O)Nc2ccc(O)cc2)C(C)(C)CCC1 [fenretinide, N-[4-hydroxyphenyl]retinamide] |  |  |  |  | effective inhibitors of SCD1 activity | inhibitory effect on SCD1 expression | 1258.94 and 1398.36 and 1783.91 | 12.20 and 15.08 and 14.79 |
| COc1ccc(NC(=O)/C=C(C)/C=C/C=C(C)/C=C/C2=C(C)CCCC2(C)C)cc1 [MPR, N-[4-methoxyphenyl]retinamide] | 2368.01 and 2526.72 and 1327.38 |  | 8.882 and 7.657 and 8.556 | 8.365 | no inhibitory effect on SCD1 activity at all | do not affect |  |  |
| CC1=C(/C=C/C(C)=C/C=C/C(C)=C/C(=O)Nc2ccc(O)cc2)C(C)(C)CCC1=O [3-keto-HPR, 4-oxo-N-(4-hydroxyphenyl)retinamide] | 1476.16 and 1271.38 and 1913.30 | 17.56 and 10.07 and 19.08 | 84.064 and 126.254 and 100.278 | 103.532 | effective inhibitors of SCD1 activity | more efficiently inhibits SCD1 expression |  |  |
